Results published in ChEMBL document CHEMBL1147928, “Engineering small molecule specificity in nearly identical cellular environments” (Bioorg Med Chem Lett, 2007).

Legend:
[1] = Cytotoxicity against mouse wild type fibroblast cells by MTT assay; type: cell-based
MEF = experiment: Cytotoxicity against FKBP deficient MEF cells by MTT assay; type: cell-based; settings: Mus musculus

SMILES: CN(Cc1cnc2nc(N)nc(N)c2n1)c1ccc(C(=O)NC(CCC(=O)O)C(=O)O)cc1 (single isomer, unassigned) [METHOTREXATE]
- IC50 [1]: 180 nM
- IC50 (MEF): 120 nM
